{"source": "patent US11759442B2", "about": "“Use of short chain fatty acids for the treatment and prevention of diseases and disorders” (Temple University-Of The Commonwealth System of Higher …, priority 2017, dated 2023)", "key": {"[1]": {"biological_target": "GPR-109a receptor (Homo sapiens, UniProt Q8TDS4)", "sequence (Q8TDS4 whole entry)": "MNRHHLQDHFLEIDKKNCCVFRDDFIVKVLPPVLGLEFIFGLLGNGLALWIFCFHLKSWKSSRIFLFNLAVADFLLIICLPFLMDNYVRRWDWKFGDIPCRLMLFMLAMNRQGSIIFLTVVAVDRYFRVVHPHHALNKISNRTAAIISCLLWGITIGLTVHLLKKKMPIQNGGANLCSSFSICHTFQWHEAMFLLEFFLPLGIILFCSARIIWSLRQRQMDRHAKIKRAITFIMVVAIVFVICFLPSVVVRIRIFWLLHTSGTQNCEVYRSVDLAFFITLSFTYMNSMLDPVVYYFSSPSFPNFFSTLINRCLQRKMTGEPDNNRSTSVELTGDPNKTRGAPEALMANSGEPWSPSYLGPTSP", "details": "read-out: EC50 of GPR-109a receptor activation; cited from earlier work"}, "[2]": {"test_system": "psoriasis skin lesions"}, "[3]": {"test_system": "IL-6", "details": "cited from earlier work"}, "[4]": {"test_system": "ileum inflammatory cytokines", "details": "neonatal piglets, oral ~10 ml of 150 mmol/L; cited from earlier work"}}}
{"compound": "CCCC(=O)O", "note": "[butyrate]", "values": [{"measurement": "EC50", "setting": "[1]", "value": "~1500", "unit": "µM"}, {"measurement": "re-emergence of psoriasis on left elbow after ceasing the regimen", "setting": "[2]; FIG. 2 patient, one 600 mg pill 3 times daily for 16 days, then stopped", "value": 20, "unit": "days"}, {"measurement": "time until psoriasis came back after stopping the regimen", "setting": "[2]; FIG. 5 fourth patient", "value": "20 to 25", "unit": "days"}, {"measurement": "side effects during treatment", "setting": "[2]; FIG. 5 fourth patient, treatment for long period of time", "value": "no side effects were noted"}]}
{"compound": "CCC(=O)O", "note": "[propionate]", "values": [{"measurement": "effect on IL-6", "setting": "[3]", "value": "inhibit IL-6"}]}
{"compound": "CCCC(=O)[O-].[Na+]", "note": "[sodium butyrate]", "values": [{"measurement": "effect on ileum inflammatory cytokines", "setting": "[4]", "value": "modulated the ileum inflammatory cytokines"}]}
